Results taken from patent US7470794B2, “Preparation and use of ortho-sulfonamido aryl hydroxamic acids as matrix metalloproteinase inhibitors” (Wyeth, priority 2000, dated 2008).
Read-outs that look alike come from different tables or passages of the source.

Assays:
MMP-1 = molecular target: T1, MMP-1 (Homo sapiens, UniProt P03956); experiment: MMP-1 inhibition (thiopeptide or fluorescent peptide substrate assay); assay type: biochemical
T1 sequence (P03956 100-469): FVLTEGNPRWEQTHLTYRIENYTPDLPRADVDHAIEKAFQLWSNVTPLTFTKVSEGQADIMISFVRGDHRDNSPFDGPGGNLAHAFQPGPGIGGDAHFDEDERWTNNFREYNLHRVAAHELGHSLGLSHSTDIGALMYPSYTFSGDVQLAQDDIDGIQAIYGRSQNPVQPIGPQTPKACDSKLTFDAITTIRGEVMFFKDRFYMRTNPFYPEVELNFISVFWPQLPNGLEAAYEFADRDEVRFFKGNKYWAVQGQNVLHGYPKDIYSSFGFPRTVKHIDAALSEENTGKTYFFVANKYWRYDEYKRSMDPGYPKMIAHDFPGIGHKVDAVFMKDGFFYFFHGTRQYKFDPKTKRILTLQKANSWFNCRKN
Protocol: (§1) These assays are based on the cleavage of a thiopeptide substrates such as Ac-Pro-Leu-Gly(2-mercapto-4-methyl-pentanoyl)-Leu-Gly-OEt by the matrix metalloproteinases MMP-1, MMP-13 (collagenases) or MMP-9 (gelatinase), which results in the release of a substrate product that reacts colorimetrically with DTNB (5,5′-dithiobis(2-nitro-benzoic acid)). The enzyme activity is measured by the rate of the color increase. The thiopeptide substrate is made up fresh as a 20 mM stock in 100% DMSO and the DTNB is dissolved in 100% DMSO as a 100 mM stock and stored in the dark at room temperature. Both the substrate and DTNB are diluted together to 1 mM with substrate buffer (50 mM HEPES pH 7.5, 5 mM CaCl2) before use. The stock of enzyme is diluted with assay buffer (50 mM HEPES, pH 7.5, 5 mM CaCl2, 0.02% Brij) to the desired final concentration. The assay buffer, enzyme, vehicle or inhibitor, and DTNB/substrate are added in this order to a 96 well plate (total reaction volume of 200 μl) and the increase in color is monitored spectrophotometrically for 5 minutes at 405 nm on a plate reader and the increase in color over time is plotted as a linear line.
(§2) Alternatively, a fluorescent peptide substrate is used. In this assay, the peptide substrate contains a fluorescent group and a quenching group. Upon cleavage of the substrate by an MMP, the fluorescence that is generated is quantitated on the fluorescence plate reader. The assay is run in HCBC assay buffer (50 mM HEPES, pH 7.0, 5 mM Ca^+2, 0.02% Brij, 0.5% Cysteine), with human recombinant MMP-1, MMP-9, or MMP-13. The substrate is dissolved in methanol and stored frozen in 1 mM aliquots. For the assay, substrate and enzymes are diluted in HCBC buffer to the desired concentrations. Compounds are added to the 96 well plate containing enzyme and the reaction is started by the addition of substrate. The reaction is read (excitation 340 nm, emission 444 nm) for 10 min. and the increase in fluorescence over time is plotted as a linear line.
(§3) For either the thiopeptide or fluorescent peptide assays, the slope of the line is calculated and represents the reaction rate. The linearity of the reaction rate is confirmed (r^2>0.85). The mean (x±sem) of the control rate is calculated and compared for statistical significance (p<0.05) with drug-treated rates using Dunnett's multiple comparison test. Dose-response relationships can be generated using multiple doses of drug and IC50 values with 95% CI are estimated using linear regression.

MMP-9 = MMP-9 (Homo sapiens, UniProt P14780); experiment: MMP-9 inhibition (thiopeptide or fluorescent peptide substrate assay); assay type: biochemical
Sequence of MMP-9 (P14780 94-707): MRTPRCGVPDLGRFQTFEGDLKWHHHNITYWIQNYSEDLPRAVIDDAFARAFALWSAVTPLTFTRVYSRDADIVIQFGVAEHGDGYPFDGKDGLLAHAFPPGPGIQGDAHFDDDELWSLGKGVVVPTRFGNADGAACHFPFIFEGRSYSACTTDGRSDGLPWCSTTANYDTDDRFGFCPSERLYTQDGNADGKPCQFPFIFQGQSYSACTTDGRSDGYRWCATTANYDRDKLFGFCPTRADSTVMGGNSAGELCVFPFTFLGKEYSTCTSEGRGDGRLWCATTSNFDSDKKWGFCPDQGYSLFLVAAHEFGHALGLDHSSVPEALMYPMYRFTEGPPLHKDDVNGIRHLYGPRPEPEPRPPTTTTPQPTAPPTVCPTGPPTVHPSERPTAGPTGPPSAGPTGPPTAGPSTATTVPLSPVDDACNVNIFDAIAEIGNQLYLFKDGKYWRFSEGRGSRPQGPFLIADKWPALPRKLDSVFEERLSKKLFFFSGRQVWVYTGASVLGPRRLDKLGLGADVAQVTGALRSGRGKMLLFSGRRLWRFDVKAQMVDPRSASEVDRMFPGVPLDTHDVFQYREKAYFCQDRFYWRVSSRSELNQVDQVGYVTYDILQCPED
Protocol: as §1, §2, §3

MMP-13 = MMP-13 (Homo sapiens, UniProt P45452); experiment: MMP-13 inhibition (thiopeptide or fluorescent peptide substrate assay); assay type: biochemical
Protocol: as §1, §2, §3

[1] = molecular target: T2, tumor necrosis factor-alpa converting enzyme (TACE; Immunex) (Homo sapiens, UniProt P78536); experiment: TACE inhibition (fluorescent peptidyl substrate assay); assay type: biochemical; details: 1 μM test compound
T2 construct: purchased Immunex
T2 sequence (P78536 215-824): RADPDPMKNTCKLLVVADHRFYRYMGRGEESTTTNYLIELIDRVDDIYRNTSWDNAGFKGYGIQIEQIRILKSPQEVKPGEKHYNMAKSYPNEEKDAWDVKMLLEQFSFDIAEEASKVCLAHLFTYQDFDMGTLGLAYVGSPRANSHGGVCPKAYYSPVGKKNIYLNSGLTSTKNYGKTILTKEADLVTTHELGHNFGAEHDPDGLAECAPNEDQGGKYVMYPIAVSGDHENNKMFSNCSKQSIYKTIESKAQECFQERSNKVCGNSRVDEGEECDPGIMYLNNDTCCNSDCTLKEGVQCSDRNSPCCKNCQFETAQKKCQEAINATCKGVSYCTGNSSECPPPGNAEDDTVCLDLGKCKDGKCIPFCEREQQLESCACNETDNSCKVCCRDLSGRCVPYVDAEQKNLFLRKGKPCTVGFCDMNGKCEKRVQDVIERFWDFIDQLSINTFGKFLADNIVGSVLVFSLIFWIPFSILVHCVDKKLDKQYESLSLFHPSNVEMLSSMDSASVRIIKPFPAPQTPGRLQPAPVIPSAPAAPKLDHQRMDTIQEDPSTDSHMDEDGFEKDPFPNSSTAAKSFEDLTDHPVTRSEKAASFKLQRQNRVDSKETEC
Protocol: Using 96-well black microtiter plates, each well receives a solution composed of 10 μL tumor necrosis factor-alpa converting enzyme (TACE; Immunex, final concentration 1 μg/mL), 70 μL Tris buffer, pH 7.4 containing 10% glycerol (final concentration 10 mM), and 10 μL of test compound solution in DMSO (final concentration 1 μM, DMSO concentration <1%) and incubated for 10 minutes at room temperature. The reaction is initiated by addition of a fluorescent peptidyl substrate (final concentration 100 μM) to each well and then shaking on a shaker for 5 sec.
The reaction is read (excitation 340 nm, emission 420 nm) for 10 min. and the increase in fluorescence over time is plotted as a linear line. The slope of the line is calculated and represents the reaction rate.
as §3, with “The” for “For either the thiopeptide or fluorescent peptide assays, the slope of the line is calculated and represents the reaction rate. The”, “generate” for “generated”

| Compound | IC50 (MMP-1) | IC50 (MMP-9) | IC50 (MMP-13) | inhibition at 1 µM [1] | melting point | IC50 (MMP-1; cells printed in μM) | TACE % inhibition @ 1 μM [1] |
| --- | --- | --- | --- | --- | --- | --- | --- |
| Cc1cccc(C(=O)NO)c1N(C)S(=O)(=O)c1ccc(OCCNC(=O)c2ccc3ccccc3n2)cc1 [Example 4, Quinoline-2-carboxylic acid(2-{4-[(2-hydroxycarbamoyl-6-methyl-phenyl)-methyl-sulfamoyl]-phenoxy}-ethyl)-amide] | 4.24 µM | 337 nM | 73 nM | 19.9% | 114 to 121 °C | – | – |
| Cc1cccc(C(=O)NO)c1N(C)S(=O)(=O)c1ccc(OCCCNC(=O)c2cc3ccccc3o2)cc1 [Example 6, Benzofuran-2-carboxylic acid(3-{4-[(2-hydroxycarbamoyl-6-methyl-phenyl)-methyl-sulfamoyl]-phenoxy}-propyl)-amide] | 5.45 µM | 510 nM | 4.9 nM | 21.3% | 148 to 150 °C | – | – |
| Cc1cccc(C(=O)NO)c1N(C)S(=O)(=O)c1ccc(OCCCCNC(=O)c2cc3ccccc3o2)cc1 [Example 8, Benzofuran-2-carboxylic acid(4-{4-[(2-hydroxycarbamoyl-6-methyl-phenyl)-methyl-sulfamoyl]-phenoxy}-butyl)-amide] | 5.12 µM | 84 nM | 467 nM | 43.6% | 131 to 134 °C | – | – |
| Cc1cccc(C(=O)NO)c1N(C)S(=O)(=O)c1ccc(OCCCNC(=O)c2cc3ccccc3[nH]2)cc1 [Example 10, 1H-Indole-2-carboxylic acid(3-{4-[(2-hydroxycarbamoyl-6-methyl-phenyl)-methyl-sulfamoyl]-phenoxy}-propyl)-amide] | 5.64 µM | 305 nM | 178 nM | 35.7% | 144 to 146 °C | – | – |
| Cc1cccc(C(=O)NO)c1N(C)S(=O)(=O)c1ccc(OCCNC(=O)c2cc3ccccc3s2)cc1 [Example 12, Benzo[b]thiophene-2-carboxylic acid(2-{4-[(2-hydroxycarbamoyl-6-methyl-phenyl)-methyl-sulfamoyl]-phenoxy}-ethyl)-amide] | – | 914 nM | 595 nM | 15.2% | 169 to 171 °C | > 10 µM | – |
| Cc1cccc(C(=O)NO)c1N(C)S(=O)(=O)c1ccc(OCCCNC(=O)c2ccc3c(c2)OCO3)cc1 [Example 14, N-{3-[4-({2-[(hydroxyamino)carbonyl]-6, N-dimethylanilino}sulfonyl)phenoxy]propyl}-1,3-benzodioxole-5-carboxamide] | 1.48 µM | 63.6 nM | 110 nM | 42.1% | 102 to 112 °C | – | – |
| Cc1cccc(C(=O)NO)c1N(C)S(=O)(=O)c1ccc(OCCCNC(=O)c2cc3ccccc3s2)cc1 [Example 27, N-{3-[4-({2-[(Hydroxyamino)carbonyl]-6-dimethylanilino}-sulfonyl)phenoxy]propyl}-1-benzothiophene-2-carboxamide] | – | 1390 nM | 43 nM | 22% | 100 to 105 °C | 30 µM | – |
| Cc1cc(C)c(N(Cc2ccccc2)S(=O)(=O)c2ccc(OCCNC(=O)c3cc4ccccc4o3)cc2)c(C(=O)NO)c1 [Example 31, Benzofuran-2-carboxylic acid(2-{4-[benzyl-(2-hydroxycarbamoyl-4,6-dimethyl-phenyl)-sulfamoyl]-phenoxy}-ethyl)-amide] | – | – | 17.1 nM | 18.9% | – | – | – |
| N-{4-[4-({2-[(hydroxyamino)carbonyl]-6, N-dimethylanilino}sulfonyl)phenoxy]butyl}-1,3-benzodioxole-5-carboxamide [Example 16] | 0.999 µM | 55.7 nM | 83.5 nM | – | – | – | 27.4% |
